# Experimental data taken from US9440913B2, “Dihydroxybenzene derivatives and antiprotozoal agent comprising same as active ingredient” (NAI INC., priority 2010, dated 2016).
# Key:
# [1] = molecular target: T1, recombinant Trypanosome AOX (TAO) enzyme (Trypanosoma brucei brucei, UniProt Q26710); assay: TAO enzyme inhibition (quinol oxidase activity, ubiquinol-1 substrate); type: biochemical, T. brucei brucei; settings: TAO-expressing E. coli membrane fraction, 25° C., ubiquinol-1, absorbance at 278 nm
# T1 construct: made in house; host or cells: Escherichia coli (membrane fraction)
# T1 sequence (Q26710 whole entry): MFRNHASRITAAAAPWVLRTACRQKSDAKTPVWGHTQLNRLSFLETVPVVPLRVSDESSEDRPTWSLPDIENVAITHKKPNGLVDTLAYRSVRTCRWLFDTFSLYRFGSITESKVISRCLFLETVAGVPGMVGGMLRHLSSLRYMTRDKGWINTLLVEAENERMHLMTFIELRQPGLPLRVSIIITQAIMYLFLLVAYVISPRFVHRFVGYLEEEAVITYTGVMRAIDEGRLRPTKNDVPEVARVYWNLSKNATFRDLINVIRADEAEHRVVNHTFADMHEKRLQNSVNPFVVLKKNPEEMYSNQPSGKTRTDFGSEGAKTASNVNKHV
# Description: Escherichia coli membrane fractions that express TAO by a plasmid harboring TAO cDNA cloned from T. brucei brucei (Fukai, Comparative Biochemistry & Physiology, 124, 141-148, 1999) were used as a recombinant Trypanosome AOX (TAO) enzyme. 50 mM Tris-HCl (pH 7.5), TAO-expressing membrane fraction (0.35 ng), and […] of an inhibitor were mixed in a 1 mL cuvette, and the mixture was incubated at 25° C. for 4 minutes. Ubiquinol-1 as a substrate was then added to the mixture to initiated the reaction, and change in absorbance at 278 nm was monitored (Shimadzu UV-3000, molar absorption coefficient ε=15 cm^−1 mM^−1).
# T. b. rhodesiense IL1501 = assay: Antiprotozoal effect, MIC measurement in HMI-9 culture; type: cell-based; settings: Trypanosoma brucei, RHODESIENSE, 24 h, bloodstream forms, 18 + 6 hours culture
# Description: T. b. rhodesiense IL1501, the human infectious protozoan that causes acute symptoms, was used as a Trypanosomatid protozoan. The bloodstream forms of protozoan can be cultured in a HMI-9 culture medium (Hirumi, 1989). The protozoan was always cultured at a temperature of 37° C. in the presence of 5% CO2.
# In a microtiter plate (96-well, FALCON 3072), HMI-9 culture medium and HMI-9 culture medium plus glycerol added to make a final concentration of 8.33 mM are separately prepared. 89 μL of the preparation are put into only the first well, and a 60 μL aliquot of each the other wells. 1 μL of a solution of AF or a AF derivative dissolved in DMSO was added to the first well, and was then suspended. A 30 μL aliquot of the suspension was then collected, was transferred to the second well, and was suspended. These operations were repeated in this order to prepare a three-fold dilution series of drug. A 40 μL aliquot of a protozoan culture was added to each well to make a final concentration of 5×10^4 cells/well (a final concentration of glycerol of 5 mM) followed by 18-hours culturing under conditions of 37° C. and 5% CO2. (For EC50 measurement, a 10 μL aliquot of Alamar Blue was added to each well), culturing was carried out under the same conditions for 6 more hours, surviving protozoans were visually observed with a microscope. The concentration at which no motile surviving protozoan was observed was defined as MIC.
# [2] = molecular target: Cryptosporidium cyanide insensitive oxidase (AOX), recombinant protein (cCpAOX) (Cryptosporidium parvum, UniProt Q761U6); assay: CpAOX enzyme inhibition; type: biochemical
# Chain of Cryptosporidium cyanide insensitive oxidase (AOX), recombinant protein (cCpAOX) (Q761U6 entry or part of it): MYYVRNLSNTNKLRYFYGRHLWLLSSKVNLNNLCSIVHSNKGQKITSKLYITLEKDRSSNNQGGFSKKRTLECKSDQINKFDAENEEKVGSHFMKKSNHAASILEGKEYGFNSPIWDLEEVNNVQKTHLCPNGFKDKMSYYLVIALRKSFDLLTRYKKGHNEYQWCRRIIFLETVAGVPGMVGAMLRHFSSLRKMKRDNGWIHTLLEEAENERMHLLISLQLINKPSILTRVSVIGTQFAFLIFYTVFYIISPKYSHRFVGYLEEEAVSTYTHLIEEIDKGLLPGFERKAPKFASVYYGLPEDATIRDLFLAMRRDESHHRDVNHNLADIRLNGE
# Excerpt: Cryptosporidium has found to have cyanide insensitive oxidase (AOX), and its inhibitory activity was observed using its recombinant protein (cCpAOX) produced in E. coli.
# T. b. rhodesiense = assay: Treatment of mice infected with T. b. rhodesiense (cure and survival); type: in vivo; settings: Glycerol dose 1.25 g/kg; i.p., five doses at 6 hour interval
# Description: Mice were infected with T. b. rhodesiense, a protozoan that causes acute symptoms at 1×10^3 cells/mouse, administration of medication in mice was started 24 hours after the infection, and the mice received five doses of each drug at the dosing interval of 6 hours. Mice were all infected and treated intraperitoneally (i.p). Mice that have no Trypanosomatid protozoan in the blood and survive even 60 days or more after the end of treatment were determined to be cured. Survival days represents an average survival time after treatment in mice that died from infection; therefore, survival days for the group of cured mice are not described in Table 2.
# [3] = Glycerol (+), final concentration of glycerol of 5 mM
Structure (SMILES),IC50 [1],MIC (T. b. rhodesiense IL1501; [3]),MIC (T. b. rhodesiense IL1501; Glycerol (−)),IC50 [2],melting point,Cured/Infected (T. b. rhodesiense)
"Cc1c(Cl)c(O)c(CCCCCCCOC(=O)C(C)(C)C)c(O)c1C=O [Compound 215-11-OPiv, 7-(3-Chloro-5-formyl-2,6-dihydroxy-4-methylphenyl)heptyl pivalate]",0.25 nM,0.094 nM,0.88 nM,1.4 nM,63 to 64 °C,
"C/C(=C\Cc1c(O)c(Cl)c(C)c(C=O)c1O)CC/C=C(\C)COC(=O)C(C)(C)C [Compound 234-12-OPiv, (2E,6E)-8-(3-Chloro-5-formyl-2,6-dihydroxy-4-methylphenyl)-2,6-dimethyl-2,6-octadienyl pivalate]",0.4 nM,0.031 nM,0.39 nM,,,5/5
"Cc1c(Cl)c(O)c(CCCCCCCCCC(=O)OCC2COC(C)(C)O2)c(O)c1C=O (centres unmarked) [Compound 502-16-G, 2,2-Dimethyl-1,3-dioxolanee-4-methyl 10-(3-chloro-5-formyl-2,6-dihydroxy-4-methylphenyl)decanoate]",0.3 nM,1.2 nM,12 nM,2.3 nM,55 to 56 °C,
COC(CC(=O)C(C)(C)C)/C(C)=C/CC/C(C)=C/Cc1c(O)c(Cl)c(C)c(C=O)c1O (centres unmarked) [Compound 271-12],0.22 nM,0.0023 nM,0.056 nM,1.6 nM,,
CC(=O)/C(C)=C/CC/C(C)=C/Cc1c(O)c(Cl)c(C)c(C=O)c1O [Compound 276-9],1.2 nM,0.53 nM,13 nM,2.1 nM,119 to 120 °C,
"Cc1c(Cl)c(O)c(CCCCCCC(C)C)c(O)c1C=O [Compound 279-8, 3-Chloro-4,6-dihydroxy-2-methyl-5-(7-methyloctyl)benzaldehyde]",0.22 nM,7.3 nM,12 nM,2.1 nM,93 to 94 °C,
"Cc1c(Cl)c(O)c(C/C=C/CCCCCOC(=O)C(C)(C)C)c(O)c1C=O [Compound 206-12-OPiv, (E)-8-(3-Chloro-5-formyl-2,6-dihydroxy-4-methylphenyl)-6-octenyl pivalate]",0.27 nM,0.006 nM,0.024 nM,2.1 nM,,
"CC(C)=CCC/C=C/Cc1c(O)c(Cl)c(C)c(C=O)c1O [Compound 278-8, (E)-3-Chloro-4,6-dihydroxy-2-methyl-5-(7-methyl-2,6-octadienyl)benzaldehyde]",0.25 nM,7.4 nM,14 nM,1.2 nM,,
"Cc1c(Cl)c(O)c(CCCCCCCCCC(=O)OC(C)(C)C)c(O)c1C=O [Compound 215-13-COOBu, tert-Butyl 10-(3-chloro-2,6-dihydroxy-5-formyl-4-methylphenyl)decanoate]",0.25 nM,1.2 nM,16 nM,0.92 nM,,
"CCCCCC#CCc1c(O)c(Cl)c(C)c(C=O)c1O [Compound 284-8, 3-Chloro-4,6-dihydroxy-5-(2-octynyl)-2-methylbenzaldehyde]",0.3 nM,9.6 nM,92 nM,1.9 nM,135 to 136 °C,
"CC(=O)OC(C)/C(C)=C/CC/C(C)=C/Cc1c(O)c(Cl)c(C)c(C=O)c1O (centres unmarked) [Compound 277-11-OAc, (3E,7E)-9-(3-Chloro-5-formyl-2,6-dihydroxy-4-methyl)phenyl-3,7-dimethyl-3,7-nonadie2-yl acetate]",1.2 nM,0.082 nM,2.3 nM,1.5 nM,,4/4
"CCC(=O)OCCCCCCCCc1c(O)c(Cl)c(C)c(C=O)c1O [Compound 215-12-OCOEt, 8-(3-Chloro-5-formyl-2,6-dihydroxy-4-methylphenyl)octyl propionate]",0.29 nM,,,2.2 nM,63 to 64 °C,
"Cc1c(Cl)c(O)c(/C=C/CCCCCCCOC(=O)C(C)(C)C)c(O)c1C=O [Compound 200-13-OPiv, (E)-9-(3-Chloro-5-formyl-2,6-dihydroxy-4-methylphenyl)-8-nonenyl pivalate]",0.32 nM,,,2.2 nM,69 to 70 °C,
"Cc1c(Cl)c(O)c(CCCCCCCCCC(=O)OC(C)C)c(O)c1C=O [Compound 215-13-COOiPr, Isopropyl 10-(3-chloro-2,6-dihydroxy-5-formyl-4-methylphenyl)decanoate]",0.43 nM,0.061 nM,1.7 nM,2.2 nM,49 °C,
"CC(=O)OCCCCCCCCc1c(O)c(Cl)c(C)c(C=O)c1O [Compound 215-11-OAc, 8-(3-Chloro-5-formyl-2,6-dihydroxy-4-methylphenyl)octyl acetate]",0.6 nM,7.7 nM,68 nM,2.7 nM,68 °C,
C/C(=C\Cc1c(O)c(Cl)c(C)c(C=O)c1O)CC/C=C(\C)C(C)O (centres unmarked) [Compound 277-9-OH],0.48 nM,0.048 nM,74 nM,2.5 nM,,4/4
"Cc1c(Cl)c(O)c(CCCCCCCCCCCC(=O)OC(C)C)c(O)c1C=O [Compound 215-15-COOiPr, Isopropyl 12-(3-chloro-5-formyl-2,6-dihydroxy-4-methylphenyl)dodecanoate]",0.32 nM,,,2.5 nM,82 to 83 °C,
"Cc1c(Cl)c(O)c(CCCCCCCCOC(=O)C(C)(C)C)c(O)c1C=O [Compound 215-12-OPiv, 8-(3-Chloro-5-formyl-2,6-dihydroxy-4-methylphenyl)octyl pivalate]",0.32 nM,0.49 nM,1.9 nM,2.7 nM,70 to 71 °C,
"COC(=O)/C(C)=C/CC/C(C)=C/Cc1c(O)c(Cl)c(C)c(C=O)c1O [Compound 275-10-COOMe, Methyl (2E,6E)-8-(3-Chloro-5-formyl-2,6-dihydroxy-4-methyl)phenyl-2,6-dimethyl-2,6-octadienate]",0.38 nM,1.1 nM,8.7 nM,1.2 nM,,
"Cc1c(Cl)c(O)c(CCCCCCCC(=O)Oc2c3ccccc3cc3ccccc23)c(O)c1C=O [Compound 215-18-Anthra, 9-Anthryl 8-(3-chloro-5-formyl-2,6-dihydroxy-4-methylphenyl)octanate]",0.5 nM,3.8 nM,6.6 nM,2.6 nM,,
"Cc1c(Cl)c(O)c(CCCCCCCCCC(=O)O)c(O)c1C=O [Compound 215-11-COOH, 10-(3-Chloro-5-formyl-2,6-dihydroxy-4-methylphenyl)decanoic acid]",1.5 nM,1500 nM,4000 nM,2.1 nM,154 to 156 °C,
"COC(=O)CCCCCCCCCc1c(O)c(Cl)c(C)c(C=O)c1O [Compound 215-12-COOMe, Methyl 10-(3-chloro-5-formyl-2,6-dihydroxy-4-methylphenyl)decanoate]",0.25 nM,5.7 nM,38 nM,1.5 nM,87 to 88 °C,
"CCC(=O)OCCCCCCCCCc1c(O)c(Cl)c(C)c(C=O)c1O [Compound 215-13-OCOEt, 9-(3-Chloro-5-formyl-2,6-dihydroxy-4-methylphenyl)nonyl propionate]",0.2 nM,7.1 nM,125 nM,2.1 nM,69 to 70 °C,
"CCCCC/C(C)=C\Cc1c(O)c(Cl)c(C)c(C=O)c1O [Compound 264-8-z, (Z)-3-Chloro-4,6-dihydroxy-2-methyl-5-(3-methyl-2-octenyl)benzaldehyde]",0.18 nM,0.17 nM,0.25 nM,1.4 nM,157 to 158 °C,
